# Results taken from US20140038989A1, “TETRAHYDROPYRAZOLO [1,5-A] PYRIMIDINE AS ANTI-TUBERCULOSIS COMPOUNDS” (Glaxo Group Limited, priority 2011, published 2014).
# Test system: Mycobacterium tuberculosis H37Rv
# Test: Mycobacterium tuberculosis H37Rv Inhibition Assay (Whole Cell Assay)
# Format: cell-based
# Conditions: ATCC 25618 / H37Rv, H37Rv strain (ATCC25618), Middlebrook 7H9, six days at 37° C., resazurin fluorescence after 48 hours
row,Structure (SMILES),MIC [µM]
1,"Cc1ccc([C@H]2C[C@@H](C(F)(F)F)n3ncc(C(=O)NCc4ccco4)c3N2)cc1 (relative stereo) [56′, Cis-N-(furan-2-ylmethyl)-5-(p-tolyl)-7-(trifluoromethyl)-4,5,6,7-tetrahydropyrazolo[1,5-a]pyrimidine-3-carboxamide, reference compound]",> 2
2,"CCc1ccc([C@H]2C[C@@H](C(F)(F)F)n3ncc(C(=O)NCc4ccc(OC)cc4)c3N2)cc1 (relative stereo) [Example 1, Cis-5-(4-ethylphenyl)-N-(4-methoxybenzyl)-7-(trifluoromethyl)-4,5,6,7-tetrahydropyrazolo[1,5-a]pyrimidine-3-carboxamide]",≤ 1
3,"CCc1ccc([C@H]2C[C@@H](C(F)(F)F)n3ncc(C(=O)NCc4cccc(C)c4)c3N2)cc1 (relative stereo) [Example 3, Cis-5-(4-ethylphenyl)-N-(3-methylbenzyl)-7-(trifluoromethyl)-4,5,6,7-tetrahydropyrazolo[1,5-a]pyrimidine-3-carboxamide]",≤ 1
4,"CCc1ccc([C@H]2C[C@@H](C(F)(F)F)n3ncc(C(=O)NCc4ccc(C)o4)c3N2)cc1 (relative stereo) [Example 4, Cis-5-(4-ethylphenyl)-N-((5-methylfuran-2-yl)methyl)-7-(trifluoromethyl)-4,5,6,7-tetrahydropyrazolo[1,5-a]pyrimidine-3-carboxamide]",≤ 1
5,"CCc1ccc([C@H]2C[C@@H](C(F)(F)F)n3ncc(C(=O)NCC4CCCCC4)c3N2)cc1 (relative stereo) [Example 5, Cis-N-(cyclohexylmethyl)-5-(4-ethylphenyl)-7-(trifluoromethyl)-4,5,6,7-tetrahydropyrazolo[1,5-a]pyrimidine-3-carboxamide]",≤ 1
6,"CCc1ccc([C@H]2C[C@@H](C(F)(F)F)n3ncc(C(=O)NCc4ccc(C(F)(F)F)cc4)c3N2)cc1 (relative stereo) [Example 6, Cis-5-(4-ethylphenyl)-7-(trifluoromethyl)-N-(4-(trifluoromethyl)benzyl)-4,5,6,7-tetrahydropyrazolo[1,5-a]pyrimidine-3-carboxamide]",≤ 1
7,"CCc1ccc([C@H]2C[C@@H](C(F)(F)F)n3ncc(C(=O)NCc4cccc(OC)c4)c3N2)cc1 (relative stereo) [Example 8, Cis-5-(4-ethylphenyl)-N-{[3-(methyloxy)phenyl]methyl}-7-(trifluoromethyl)-4,5,6,7-tetrahydropyrazolo[1,5-a]pyrimidine-3-carboxamide]",≤ 1
8,"CCc1ccc([C@H]2C[C@@H](C(F)(F)F)n3ncc(C(=O)NCc4ccc(C)c(Cl)c4)c3N2)cc1 (relative stereo) [Example 9, Cis-N-(3-chloro-4-methylbenzyl)-5-(4-ethylphenyl)-7-(trifluoromethyl)-4,5,6,7-tetrahydropyrazolo[1,5-a]pyrimidine-3-carboxamide]",≤ 1
9,"CCc1ccc([C@H]2C[C@@H](C(F)(F)F)n3ncc(C(=O)NCc4cccn4C)c3N2)cc1 (relative stereo) [Example 10, Cis-5-(4-ethylphenyl)-N-[(1-methyl-1H-pyrrol-2-yl)methyl]-7-(trifluoromethyl)-4,5,6,7-tetrahydropyrazolo[1,5-a]pyrimidine-3-carboxamide]",1 to 2
10,"CCc1ccc([C@H]2C[C@@H](C(F)(F)F)n3ncc(C(=O)NCc4ccc(N(C)C)cc4)c3N2)cc1 (relative stereo) [Example 11, Cis-N-(4-(dimethylamino)benzyl)-5-(4-ethylphenyl)-7-(trifluoromethyl)-4,5,6,7-tetrahydropyrazolo[1,5-a]pyrimidine-3-carboxamide]",1 to 2
11,"CCc1ccc([C@H]2C[C@@H](C(F)(F)F)n3ncc(C(=O)NCc4ccoc4)c3N2)cc1 (relative stereo) [Example 12, Cis-5-(4-ethylphenyl)-N-(furan-3-ylmethyl)-7-(trifluoromethyl)-4,5,6,7-tetrahydropyrazolo[1,5-a]pyrimidine-3-carboxamide]",≤ 1
12,"CCc1ccc([C@H]2C[C@@H](C(F)(F)F)n3ncc(C(=O)NCc4cccc(C(F)(F)F)c4)c3N2)cc1 (relative stereo) [Example 14, Cis-5-(4-ethylphenyl)-7-(trifluoromethyl)-N-{[3-(trifluoromethyl)phenyl]methyl}-4,5,6,7-tetrahydropyrazolo[1,5-a]pyrimidine-3-carboxamide]",1 to 2
13,"CCc1ccc([C@H]2C[C@@H](C(F)(F)F)n3ncc(C(=O)NCc4ccccc4)c3N2)cc1 (relative stereo) [Example 15, Cis-N-benzyl-5-(4-ethylphenyl)-7-(trifluoromethyl)-4,5,6,7-tetrahydropyrazolo[1,5-a]pyrimidine-3-carboxamide]",≤ 1
14,"CCc1ccc([C@H]2C[C@@H](C(F)(F)F)n3ncc(C(=O)NCc4ccc(F)c(F)c4)c3N2)cc1 (relative stereo) [Example 16, Cis-N-[(3,4-difluorophenyl)methyl]-5-(4-ethylphenyl)-7-(trifluoromethyl)-4,5,6,7-tetrahydropyrazolo[1,5-a]pyrimidine-3-carboxamide]",≤ 1
15,"CCc1ccc([C@H]2C[C@@H](C(F)(F)F)n3ncc(C(=O)NCc4cc(F)cc(F)c4)c3N2)cc1 (relative stereo) [Example 17, Cis-N-[(3,5-difluorophenyl)methyl]-5-(4-ethylphenyl)-7-(trifluoromethyl)-4,5,6,7-tetrahydropyrazolo[1,5-a]pyrimidine-3-carboxamide]",≤ 1
16,"CCc1ccc([C@H]2C[C@@H](C(F)(F)F)n3ncc(C(=O)NCc4ccc5c(c4)OCCO5)c3N2)cc1 (relative stereo) [Example 18, Cis-N-(2,3-dihydro-1,4-benzodioxin-6-ylmethyl)-5-(4-ethylphenyl)-7-(trifluoromethyl)-4,5,6,7-tetrahydropyrazolo[1,5-a]pyrimidine-3-carboxamide]",1 to 2
17,"CCc1ccc([C@H]2C[C@@H](C(F)(F)F)n3ncc(C(=O)NCc4ccc(C)nc4)c3N2)cc1 (relative stereo) [Example 19, Cis-5-(4-ethylphenyl)-N-((6-methylpyridin-3-yl)methyl)-7-(trifluoromethyl)-4,5,6,7-tetrahydropyrazolo[1,5-a]pyrimidine-3-carboxamide]",1 to 2
18,"CCc1ccc([C@H]2C[C@@H](C(F)(F)F)n3ncc(C(=O)NCc4ccc(C)cn4)c3N2)cc1 (relative stereo) [Example 20, Cis-5-(4-ethylphenyl)-N-((5-methylpyridin-2-yl)methyl)-7-(trifluoromethyl)-4,5,6,7-tetrahydropyrazolo[1,5-a]pyrimidine-3-carboxamide]",1 to 2
19,"Cc1ccc(CNC(=O)c2cnn3c2N[C@@H](c2ccc(Br)cc2)C[C@H]3C(F)(F)F)cc1 (relative stereo) [Example 21, Cis-5-(4-bromophenyl)-N-(4-methylbenzyl)-7-(trifluoromethyl)-4,5,6,7-tetrahydropyrazolo[1,5-a]pyrimidine-3-carboxamide]",≤ 1
20,"O=C(NCc1ccc2c(c1)OCO2)c1cnn2c1N[C@@H](c1ccc(Br)cc1)C[C@H]2C(F)(F)F (relative stereo) [Example 22, Cis-N-(benzo[d][1,3]dioxol-5-ylmethyl)-5-(4-bromophenyl)-7-(trifluoromethyl)-4,5,6,7-tetrahydropyrazolo[1,5-a]pyrimidine-3-carboxamide]",≤ 1
21,"CCc1ccc([C@H]2C[C@@H](C)n3ncc(C(=O)NCc4ccc(OC)cc4)c3N2)cc1 (relative stereo) [Example 23, Cis-5-(4-ethylphenyl)-7-methyl-N-{[4-(methyloxy)phenyl]methyl}-4,5,6,7-tetrahydropyrazolo[1,5-a]pyrimidine-3-carboxamide]",≤ 1
22,"Cc1ccc([C@H]2C[C@@H](C(F)(F)F)n3ncc(C(=O)NCc4cccc(C)c4)c3N2)cc1 (relative stereo) [Example 24, Cis-N-(3-methylbenzyl)-5-(p-tolyl)-7-(trifluoromethyl)-4,5,6,7-tetrahydropyrazolo[1,5-a]pyrimidine-3-carboxamide]",≤ 1
23,"Cc1ccc(CNC(=O)c2cnn3c2N[C@@H](c2ccc(C)cc2)C[C@H]3C(F)(F)F)cc1 (relative stereo) [Example 25, Cis-N-(4-methylbenzyl)-5-(p-tolyl)-7-(trifluoromethyl)-4,5,6,7-tetrahydropyrazolo[1,5-a]pyrimidine-3-carboxamide]",≤ 1
24,"Cc1ccc([C@H]2C[C@@H](C(F)(F)F)n3ncc(C(=O)NCC4CCCCC4)c3N2)cc1 (relative stereo) [Example 26, Cis-N-(cyclohexylmethyl)-5-(p-tolyl)-7-(trifluoromethyl)-4,5,6,7-tetrahydropyrazolo[1,5-a]pyrimidine-3-carboxamide]",1 to 2
25,"COc1cccc(CNC(=O)c2cnn3c2N[C@@H](c2ccc(C)cc2)C[C@H]3C(F)(F)F)c1 (relative stereo) [Example 27, Cis-N-(3-methoxybenzyl)-5-(p-tolyl)-7-(trifluoromethyl)-4,5,6,7-tetrahydropyrazolo[1,5-a]pyrimidine-3-carboxamide]",1 to 2
26,"Cc1ccc([C@H]2C[C@@H](C(F)(F)F)n3ncc(C(=O)NCc4ccc(C(F)(F)F)cc4)c3N2)cc1 (relative stereo) [Example 28, Cis-5-(p-tolyl)-7-(trifluoromethyl)-N-(4-(trifluoromethyl)benzyl)-4,5,6,7-tetrahydropyrazolo[1,5-a]pyrimidine-3-carboxamide]",1 to 2
27,"Cc1ccc([C@H]2C[C@@H](C(F)(F)F)n3ncc(C(=O)NCc4ccc(C)c(Cl)c4)c3N2)cc1 (relative stereo) [Example 29, Cis-N-(3-chloro-4-methylbenzyl)-5-(p-tolyl)-7-(trifluoromethyl)-4,5,6,7-tetrahydropyrazolo[1,5-a]pyrimidine-3-carboxamide]",1 to 2
28,"Cc1ccc([C@H]2C[C@@H](C(F)(F)F)n3ncc(C(=O)NCc4cc(F)cc(F)c4)c3N2)cc1 (relative stereo) [Example 30, Cis-N-(3,5-difluorobenzyl)-5-(p-tolyl)-7-(trifluoromethyl)-4,5,6,7-tetrahydropyrazolo[1,5-a]pyrimidine-3-carboxamide]",≤ 1
